Where a name gives a salt, the structure may show the parent alone. Activity calls are given as the source filed them.
What was measured:
[1] = molecular target: T1, Bcl-2-related protein A1 (Mus musculus, UniProt Q07440); test: Bfl-1 inhibitors, primary screen, biochemical, fluorescence polarization, FITC-Bid, mouse (AID 432)
T1 sequence (Q07440 whole entry): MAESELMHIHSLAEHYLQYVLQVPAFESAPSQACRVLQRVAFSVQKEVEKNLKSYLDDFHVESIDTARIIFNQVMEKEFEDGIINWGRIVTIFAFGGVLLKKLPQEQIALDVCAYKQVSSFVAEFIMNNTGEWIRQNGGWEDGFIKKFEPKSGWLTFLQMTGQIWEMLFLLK

[2] = molecular target: T1, Bcl-2-related protein A1; test: Bfl-1 inhibitors blocking BH3 peptide binding, confirmation, biochemical, TR-FRET, mouse Bfl-1 (AID 621);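 also: TR-FRET binding of GST-Bfl-1 to FITC-labelled Bid peptide via terbium antibody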
[3] = molecular target: Dual specificity protein phosphatase 6 (Rattus norvegicus, UniProt Q64346); test: MKP-3 phosphatase inhibitors, primary screen, biochemical, rat enzyme, in vitro (AID 425)
Dual specificity protein phosphatase 6, sequence (Q64346 whole entry, the tested form may be a part): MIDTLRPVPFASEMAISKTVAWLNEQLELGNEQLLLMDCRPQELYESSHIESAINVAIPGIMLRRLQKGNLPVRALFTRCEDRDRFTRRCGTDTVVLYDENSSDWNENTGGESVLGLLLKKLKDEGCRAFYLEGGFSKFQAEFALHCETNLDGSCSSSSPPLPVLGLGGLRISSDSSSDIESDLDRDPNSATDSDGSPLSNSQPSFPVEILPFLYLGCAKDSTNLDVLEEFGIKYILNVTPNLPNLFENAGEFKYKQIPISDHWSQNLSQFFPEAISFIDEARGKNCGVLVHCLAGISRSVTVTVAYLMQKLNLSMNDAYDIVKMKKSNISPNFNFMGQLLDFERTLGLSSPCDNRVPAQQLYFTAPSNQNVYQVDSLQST

[4] = inhibitors of HIV Env-driven cell fusion, dose response, cherry-pick (AID 652057); type: functional, cell-based
[5] = CEM21 lymphoblast cell cytotoxicity, dose response, cytotoxicity control for viral fusion inhibitor project, CellTiter-Glo luminescence, cherry-picked (AID 652042); type: functional, cell-based;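 also: potency for signal decrease meaning cytotoxicity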
[6] = ZM109 Env clade C HIV-1 fusion inhibitors, dose response, HeLa effector, CEM target cells, luciferase, cherry-pick (AID 652058); type: functional, cell-based
[7] = off-target signal loss in HeLa-CEM21 co-culture – HeLa F-luc CTL cells, cherry-picked, counter-screen for HIV-1 Env fusion inhibitor project, dose response (AID 652040); type: functional, cell-based;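 also: potency for signal decrease marking cytotoxic or nonspecific inhibition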
[8] = inhibitors of clade B AD8 Env fusion, dose response, cell-based, cherry-pick (AID 652062); type: functional;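 also: luciferase signal from cell-cell fusion driven by HIV-1 clade B AD8 Env; potency is for inhibitors of fusion seen as a drop in luminescence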
[9] = molecular target: Glutathione-S-transferase (Schistosoma japonicum, UniProt Q26513); test: biotin-GST/anti-GST TR-FRET signal inhibitors, dose response, artefact control for Vif-APOBEC3G degradation inhibitor project, biochemical (AID 1117362); type: functional
Glutathione-S-transferase, sequence (Q26513 whole entry): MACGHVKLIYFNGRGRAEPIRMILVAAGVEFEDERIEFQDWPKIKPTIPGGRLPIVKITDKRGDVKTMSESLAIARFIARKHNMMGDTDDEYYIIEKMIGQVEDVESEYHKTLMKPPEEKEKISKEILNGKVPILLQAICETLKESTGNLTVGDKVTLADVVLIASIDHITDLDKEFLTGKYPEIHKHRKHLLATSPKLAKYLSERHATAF

[10] = P. falciparum Dd2 growth inhibitors, dose response, SYBR Green, dry powder samples, set 9 (AID 1159568); type: functional, cell-based
[11] = P. falciparum Dd2 growth inhibitors, dose response, SYBR Green, cherry-picked samples (AID 1159567); type: functional, cell-based
[12] = molecular target: Sphingosine 1-phosphate receptor 2 (Homo sapiens, UniProt O95136); test: Dose Response Cell Based Assay for Agonists of the S1P2 Receptor. [Related pubchem assays: 729, 736, 843 ]; type: functional
Sphingosine 1-phosphate receptor 2, sequence (O95136 whole entry): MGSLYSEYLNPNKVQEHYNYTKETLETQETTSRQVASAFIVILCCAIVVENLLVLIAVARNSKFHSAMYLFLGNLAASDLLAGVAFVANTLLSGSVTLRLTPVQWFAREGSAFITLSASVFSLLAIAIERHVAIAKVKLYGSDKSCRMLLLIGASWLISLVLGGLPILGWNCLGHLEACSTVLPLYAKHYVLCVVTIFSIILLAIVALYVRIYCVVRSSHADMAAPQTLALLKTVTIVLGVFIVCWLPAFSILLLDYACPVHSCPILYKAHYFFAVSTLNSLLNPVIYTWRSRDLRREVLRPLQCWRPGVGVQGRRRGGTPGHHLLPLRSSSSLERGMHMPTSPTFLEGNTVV

[13] = system: Streptococcus sp. 'group A'; test: growth inhibition of control SK(-) GAS strain, dose response, counter-screen for streptokinase expression inhibitor project, luminescence, kanamycin, BacTiterGlo, confirmation (AID 1900); type: functional, organism-based
[14] = molecular target: T2, Streptokinase A (Streptococcus pyogenes serotype M1, UniProt P10520); test: S. pyogenes streptokinase expression inhibitors, potency, dose response, plasminogen activation absorbance, OD405 (AID 1914); type: functional, Streptococcus pyogenes M1 GAS;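 also: secreted streptokinase activity via plasminogen activation per viability signal from cell pellet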
T2 sequence (P10520 whole entry): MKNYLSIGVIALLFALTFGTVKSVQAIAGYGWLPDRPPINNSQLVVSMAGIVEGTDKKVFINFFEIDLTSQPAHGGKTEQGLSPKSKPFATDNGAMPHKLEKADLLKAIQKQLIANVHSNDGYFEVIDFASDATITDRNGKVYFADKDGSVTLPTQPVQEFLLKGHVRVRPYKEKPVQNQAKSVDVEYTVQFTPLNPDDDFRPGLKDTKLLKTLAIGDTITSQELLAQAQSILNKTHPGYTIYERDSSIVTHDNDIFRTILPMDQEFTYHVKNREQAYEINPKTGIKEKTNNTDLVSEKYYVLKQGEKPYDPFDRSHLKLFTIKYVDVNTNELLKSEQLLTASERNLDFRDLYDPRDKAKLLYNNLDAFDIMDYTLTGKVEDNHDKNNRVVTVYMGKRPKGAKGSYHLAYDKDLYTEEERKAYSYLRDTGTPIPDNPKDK

[15] = growth suppression of PTEN-null colon cells, dose response, cell-based, HCT116 PTEN knockout (AID 1047); type: functional;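 also: HCT116 colon tumor cells with PTEN knocked out; cells exposed to compound for 60 hours before readout; potency for loss of cell viability measured by luminescence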
[16] = growth suppression of beta-catenin-knockout colon cells, dose response, cell-based, HCT116, human colon tumor (AID 1045); type: functional;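 also: HCT116 colon tumor cells with beta catenin knocked out; cells exposed to compound for 60 hours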
[17] = system: Streptococcus; test: Group A Streptococcus viability loss, dose response, counter-screen for streptokinase expression inhibitor project, luminescence, BacTiterGlo (AID 1915); type: functional, organism-based;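 also: potency for reduction of bacterial viability or growth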
[18] = THP-1 cell cytotoxicity, dose response, cytotoxicity control for non-replicating M. tuberculosis project (AID 489025); type: functional
[19] = HepG2 cell cytotoxicity, dose response, cytotoxicity control for non-replicating M. tuberculosis project (AID 489018); type: functional; settings: Mycobacterium tuberculosis
[20] = Vero E6 cell cytotoxicity, dose response, cytotoxicity control for non-replicating M. tuberculosis project, secondary assay (AID 492998); type: functional, VeroE6; settings: Vero C1008
[21] = molecular target: T3, Microphthalmia-associated transcription factor (Homo sapiens, UniProt O75030); test: TRPM1 promoter luciferase signal decrease, dose response, MITF inhibitor project, cell-based, SK-MEL-5, cherry-picked, set 3 (AID 493073); type: functional
T3 sequence (O75030 whole entry): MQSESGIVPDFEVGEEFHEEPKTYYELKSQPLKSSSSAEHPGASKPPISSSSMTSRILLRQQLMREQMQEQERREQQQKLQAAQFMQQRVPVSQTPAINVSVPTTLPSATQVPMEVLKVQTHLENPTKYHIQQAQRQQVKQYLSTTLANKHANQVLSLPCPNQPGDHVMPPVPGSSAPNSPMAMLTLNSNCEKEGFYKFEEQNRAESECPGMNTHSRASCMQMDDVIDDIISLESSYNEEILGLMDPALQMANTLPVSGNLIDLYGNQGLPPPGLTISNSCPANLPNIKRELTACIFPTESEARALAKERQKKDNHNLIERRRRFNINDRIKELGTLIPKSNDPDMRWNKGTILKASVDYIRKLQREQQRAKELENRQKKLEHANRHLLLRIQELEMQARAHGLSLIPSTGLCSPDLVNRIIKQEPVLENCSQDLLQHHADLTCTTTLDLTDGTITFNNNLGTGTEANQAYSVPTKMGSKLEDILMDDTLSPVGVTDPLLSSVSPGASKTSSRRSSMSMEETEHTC

[22] = cells; type: functional
[23] = system: INS1; test: beta cell apoptosis inhibitors, cytokine rescue, dose response, luminescence, retest (AID 449756); type: functional, cell-based; settings: Rattus norvegicus;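 also: cell death triggered by IL-1 beta plus TNF-alpha plus IFN-gamma mixture; protective hits raise ATP signal compared with cytokine alone wells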
[24] = TRPM1 promoter luciferase reporter signal decrease, dose response, MITF inhibitor project, cell-based, SK-MEL-5, dry powder, set 9 (AID 651588); type: functional
[25] = A375 melanoma cell viability loss, dose response, counter-screen for MITF inhibitor project, CellTiter-Glo luminescence, dry powder, set 4 (AID 624364); type: functional, cell-based; settings: A-375;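 also: A375 melanoma cells are MITF independent so this is a counter screen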
[26] = A375 melanoma cell cytotoxicity, dose response, counter-screen for MITF inhibitor project, CellTiter-Glo luminescence, dry powder, set 7 (AID 624490); type: functional, cell-based; settings: A-375
[27] = MITF Orthogonal Assay: MALME3 CTG Assay Measured in Cell-Based System Using Plate Reader - 2084-04_Inhibitor_Dose_DryPowder_Activity_Set6.; type: functional; settings: MALME-3
[28] = SK-MEL-5 parental cell viability reduction, dose response, orthogonal assay for MITF inhibitor project, CellTiter-Glo luminescence, dry powder, set 8 (AID 651586); type: functional, cell-based
[29] = MALME3 melanoma cell viability reduction, dose response, orthogonal assay for MITF inhibitor project, CellTiter-Glo luminescence, dry powder, set 5 (AID 651584); type: functional, cell-based; settings: MALME-3
[30] = SK-MEL-5 parental line viability, dose response, MITF inhibitor project, cell-based, CellTiter-Glo, dry powder, set 6 (AID 624429); type: functional
[31] = MITF Orthogonal Assay: SK-MEL-5 CTG Assay Measured in Cell-Based System Using Plate Reader - 2084-02_Inhibitor_Dose_DryPowder_Activity_Set5.; type: functional
[32] = A375 melanoma cell cytotoxicity, dose response, counter-screen for MITF inhibitor project, CellTiter-Glo luminescence, dry powder, set 6 (AID 624488); type: functional, cell-based; settings: A-375
[33] = A375 melanoma cell viability loss, dose response, counter-screen for MITF modulator project, CellTiter-Glo luminescence, dry powder, set 9 (AID 651591); type: functional, cell-based; settings: A-375
[34] = MITF Measured in Cell-Based System Using Plate Reader - 2084-01_Inhibitor_Dose_DryPowder_Activity_Set6.; type: functional
[35] = A375 melanoma cell cytotoxicity, dose response, counter-screen for MITF inhibitor project, CellTiter-Glo luminescence, dry powder, set 2 (AID 624489); type: functional, cell-based; settings: A-375;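 also: actives are compounds lowering A375 viability meaning general cytotoxicity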
[36] = MITF Measured in Cell-Based System Using Plate Reader - 2084-01_Inhibitor_Dose_DryPowder_Activity_Set7.; type: functional
[37] = Dose-response inhibition of insulin secretion in a rat insulinoma line at 5 mM glucose (AID 1117331); type: functional, cell-based; settings: INS-1E
[38] = cells; type: functional, cell-based; settings: INS-1E

Cc1ccc(-c2nn3c(C)nnc3s2)cc1NC(=O)c1ccc(-c2ccc(Cl)cc2Cl)o1
> 100 µM (not active): IC50 [1] | IC50 [2]
> 10 µM (not active): IC50 [3]
active: AC50 [4] 6.5 µM | AC50 [5] 6.8 µM | AC50 [6] 4.6 µM | AC50 [7] 9.7 µM | AC50 [8] 5.1 µM

O=[N+]([O-])c1ccc(-c2ccc(/C=N/c3c(-c4ccco4)nc4ccccn34)o2)cc1
active: IC50 [9] 50.3 µM

CN1C(=O)c2cc(NC(=O)c3cccc(F)c3)ccc2OC[C@H]2O[C@H](CC(=O)NCC3CCCCC3)CC[C@H]21
active: AC50 [10] 8.12 µM | AC50 [11] 8.99 µM

O=C(CCC(=O)N1CCc2ccccc21)Nc1ccccc1
> 50 µM (not active): EC50 [12]

Cc1nc2ccccc2n1/N=C/c1ccc([N+](=O)[O-])s1
inactive: AC50 [25] > 70 µM | AC50 [26] > 70 µM | AC50 [28] > 70 µM | AC50 [33] > 70 µM | AC50 [35] > 70 µM
> 150 µM (not active): EC50 [14]
active: EC50 [13] 3.63 µM | EC50 [15] 3.72 µM | EC50 [16] 2.47 µM | EC50 [17] 10.7 µM | CC50 [18] 5.13 µM | CC50 [19] 12.4 µM | CC50 [20] 9.87 µM | AC50 [21] 3.51 µM | IC50 [22] 0.43 µM | AC50 [23] 2.01 µM | AC50 [24] 7.21 µM | AC50 [27] 22.9 µM | AC50 [29] 22.9 µM | AC50 [30] 10.7 µM | AC50 [31] 6.24 µM | AC50 [32] 47.3 µM | AC50 [34] 2.52 µM | AC50 [36] 1.1 µM

CCN(CC)CCCN(c1ccccc1)C1Cc2ccccc2C1 [APRINDINE HYDROCHLORIDE]
inactive: IC50 [37] 7.13 µM | IC50 [38] > 33.3 µM

From ChEMBL document CHEMBL1201862, “PubChem BioAssay data set” (2004)
